According to BigSolDB 2.1:

CO[C@H]1O[C@@H]2O[C@@]3(C)CC[C@H]4[C@H](C)CC[C@@H]([C@H]1C)[C@@]24OO3
solubility (mole fraction)
Settings	in ethanol	in methanol
289.05 K	0.0395	–
289.45 K	–	0.0263
290.85 K	0.0426	–
291.15 K	–	0.0295
293.95 K	0.0492	–
294.05 K	–	0.0343
296.95 K	0.0592	0.0405
299.05 K	0.0682	0.0463
300.75 K	–	0.0519
301.05 K	0.0764	–
303.55 K	–	0.0649
303.95 K	0.0903	–
306.35 K	–	0.0824
306.95 K	0.11	–
308.25 K	–	0.0988
308.45 K	0.117	–
310.15 K	–	0.116
310.45 K	0.133	–
312.95 K	–	0.149
313.2 K	0.164	–
315.65 K	–	0.187
316.25 K	0.2	–
317.35 K	–	0.222
318.95 K	0.251	–
319.45 K	–	0.297
322.05 K	–	0.355
322.65 K	0.315	–
326.05 K	0.387	–
328.65 K	0.442	–
